The first assay concerns human umbilical vein endothelial cells (HUVEC). Kind of assay: HUVEC proliferation quantified by BrdU incorporation. Type of assay: cell-based. To be noted: HUVEC proliferation, BrdU incorporation, read-out: IC50 HUVEC. As for the experimental part: Determination of the Proliferation Inhibition by Inhibitors of Methionine Aminopeptidase 2 in the BrdU Proliferation Test (Cellular Assay)
After detachment of the cells by means of trypsin/EDTA, the number of living cells is determined, and the cells are sown in a density of 1000 cells per cavity in a total volume of 175 μl (cavities are coated in advance either with supplemented culture medium for 1-2 hours at 37° C. or with 1.5% gelatine for 0.5-2 hours at 37° C.). After cultivation for 24 hours, the test substances are added in various concentrations (for example final concentrations 30 μM to 0.03 nM in 10-fold dilution steps) and a volume of 25 μl. The DMSO concentration is kept constant at 0.3%. […] To this end, the cells are treated with a fixative for 30 min at room temperature and subsequently incubated with a peroxidase-labelled anti-BrdU antibody (diluted 1:100 in antibody dilution buffer) for 60 min at room temperature. […] The colour development is stopped after 15 min by addition of 25 μl of a 1M sulfuric acid solution. […] The controls used are cavities containing DMSO-treated cells (100% control) or empty cavities (blank value).
HUVEC Proliferation Quantified by BrdU Incorporation
HUVEC Means Human Umbilical Vein Endothelial Cells
HUVEC proliferation is measured after a 5 day incubation period using incorporation of BrdU as a measure of cell cycle activity. Cells are incubated in the presence or absence of test substances. During the last 18 to 24 hours of the incubation period BrdU is added to the medium. BrdU is incorporated into the DNA as the cells progress through S-phase (DNA synthesis) of the cell cycle. The cells are fixed and the amount of BrdU incorporated can be quantified using a commercial ELISA for detection of BrdU.
HUVEC are routinely cultured in EGM MV medium and used between passages 3 and 8.
All substances are run in triplicate.
Reference compounds are run in every assay.
Data is analyzed using the Assay Explorer program. Briefly, the blank is subtracted from all values, the triplicates are averaged and normalized to the untreated. EC50 is determined from a 4-parameter general sigmoidal curve (Hill fit y=(s0−slnf)/(1+(x/AC50)^nHill)+slnf) in Assay Explorer, Symyx). The processed data (EC50 or % Effect if no EC50 if reached, Efficacy) is uploaded directly from Assay Explorer to the MSRDB.
As a reminder, the IC50 is the concentration that gives 50% inhibition. `O=C(NCc1cc(F)cc(Cl)c1)C1=CCN(c2ccccc2)C1=O` [Compound A12]: the IC50 was found to be 3300 nM.

The same assay, now with this note: HUVEC, read-out: IC50 HUVEC.
For `O=C(NCc1cc(F)cc(Cl)c1)[C@@]1(O)CCN(c2ccc3[nH]c(-c4nnn[nH]4)cc3c2)C1=O` [Compound A10], the IC50 is 3800 nM.
For `C[S@@](=N)(=O)c1ccc(N2CC[C@](O)(C(=O)NCc3cc(F)cc(Cl)c3)C2=O)cc1` [Compound A69], the IC50 is 300 nM.
Consider `O=C(NCc1cc(F)cc(Cl)c1)C1(O)CCN(c2ccc3c(c2)CS(=O)(=O)N3)C1=O` (centres unmarked) [Compound A42], for which the IC50 came to 1300 nM.
Still for that read-out and setting: the result for `O=C(NCc1cc(F)cc(Cl)c1)[C@@]1(O)CCN(c2cncnc2)C1=O` [Compound A26] reads 11000 nM; that for `CN(C)C(=O)CNC(=O)[C@H](CCC(N)=O)NC(=O)c1cc2cc(N3CC[C@](O)(C(=O)NCc4cc(F)cc(Cl)c4)C3=O)ccc2[nH]1` [Compound A51], 8100 nM; that for `O=C(NCc1cc(F)cc(Cl)c1)[C@@]1(O)CCN(c2cnc(Cl)c(F)c2)C1=O` [Compound A4], 11000 nM.
With `O=C(NCc1cc(F)cc(Cl)c1)[C@@]1(O)CCN(c2cnc3[nH]c(Cl)c(Cl)c3c2)C1=O` [Compound A62], the 50% inhibitory concentration (IC50) was 180 nM.
`O=C(NCc1cc(F)cc(Cl)c1)[C@@]1(O)CCN(c2cnc3[nH]cc(I)c3c2)C1=O` [Compound A34]: the IC50 stood at 6.7 nM.
`O=C(NCc1cc(F)cc(Cl)c1)C1(O)CCN(c2ccc3oc(=O)ccc3c2)C1=O` (centres unmarked) [Compound A16]: the IC50 is 3500 nM.
On the same count and under the same terms, as for `O=C(NCc1cc(F)cc(Cl)c1)C1(O)CCN(C(CO)c2ccccc2)C1=O` (centres unmarked) [Compound A21], the figure is 4200 nM.
With `NC(=O)c1cc2cc(N3CC[C@@](O)(C(=O)NCc4cc(F)cc(F)c4)C3=O)ccc2[nH]1` (stereo in doubt) [Compound A86], the IC50 came to 71 nM.
Regarding `O=C(NCc1cc(F)cc(Cl)c1)C1(O)CCN(c2ccc3[nH]c(-c4ccc(Cl)cc4)nc3c2)C1=O` (centres unmarked) [Compound A25], the IC50 was found to be 1300 nM.
On to `O=C(NCc1cc(F)cc(F)c1)[C@@]1(O)CCN(c2cnc3[nH]cc(F)c3c2)C1=O` [Compound A89], for which the IC50 was 32 nM.
Same read-out and setting: the result for `C[S@](=N)(=O)c1ccc(N2CC[C@](O)(C(=O)NCc3cc(F)cc(Cl)c3)C2=O)cc1` [Compound A70] reads 700 nM.
On the same count and under the same terms, as for `Cc1nnc(-c2cc3cc(N4CC[C@](O)(C(=O)NCc5cc(F)cc(Cl)c5)C4=O)ccc3[nH]2)o1` [Compound A8], the figure is 17 nM.
On to `O=C(NCc1cc(F)cc(Cl)c1)[C@@]1(O)CCN(c2cnc3[nH]cc(F)c3c2)C1=O` [Compound A53], for which the IC50 came out at 39 nM.
Take `COc1ccc(CN2c3ccc(N4CCC(O)(C(=O)NCc5cc(F)cc(Cl)c5)C4=O)cc3CS2(=O)=O)cc1` (centres unmarked) [Compound A43]: the IC50 worked out at 820 nM.
Regarding `CC(C)(C)OC(=O)C(CCC(N)=O)NC(=O)c1cc2cc(N3CC[C@](O)(C(=O)NCc4cc(F)cc(Cl)c4)C3=O)ccc2[nH]1` (stereo in doubt) [Compound A27], the IC50 was found to be 480 nM.
Turning to `O=C(NCc1cc(F)cc(Cl)c1)[C@@]1(O)CCN(c2ccc3c(c2)COB3O)C1=O` [Compound A41], the IC50 worked out at 260 nM.
On to `O=C(NCc1cc(F)cc(Cl)c1)C1(O)CCN(c2cccc(O)c2)C1=O` (centres unmarked) [Compound A18], for which the IC50 was 180 nM.
`O=C(NCc1cc(F)cc(F)c1)[C@@]1(O)CCN(c2cnc3[nH]cc(Cl)c3c2)C1=O` [Compound A79]: the IC50 is 6.5 nM.
Regarding `O=C1Cc2cc(N3CC[C@](O)(C(=O)NCc4cc(F)cc(F)c4)C3=O)ccc2N1` [Compound A66], the IC50 came to 76 nM.
As for `NC(=O)c1ccc2cc(N3CCC(O)(C(=O)NCc4cc(F)cc(Cl)c4)C3=O)ccc2n1` (centres unmarked) [Compound A83], the IC50 amounted to 500 nM.
Still for that read-out and setting: as for `CS(=N)(=O)c1ccc(N2CCC(O)(C(=O)NCc3cc(F)cc(Cl)c3)C2=O)cc1` (centres unmarked) [Compound A64, 3-hydroxy-1-(4-methanesulfoximinoyl-phenyl)-2-oxo-pyrrolidine-3-carboxylic acid 3-chloro-5-fluoro-benzylamide], the figure is 6100 nM; as for `NC(=O)CC[C@H](NC(=O)c1cc2cc(N3CC[C@](O)(C(=O)NCc4cc(F)cc(Cl)c4)C3=O)ccc2[nH]1)C(=O)O` [Compound A39], 3100 nM.
For the molecule `C[C@H](c1ccccc1)N1CC[C@](O)(C(=O)NCc2cc(F)cc(Cl)c2)C1=O` [Compound A2], the IC50 came to 7000 nM.
As to `O=C(NCc1cc(F)cc(Cl)c1)C1(O)CCN(c2cccc(-c3nnn[nH]3)c2)C1=O` (centres unmarked) [Compound A7], the IC50 turned out to be 30000 nM.
For `CCNS(=O)(=O)c1ccc(N2CC[C@](O)(C(=O)NCc3cc(F)cc(Cl)c3)C2=O)cc1` [Compound A5], the IC50 stood at 190 nM.
Consider `CS(=N)(=O)c1cccc(N2CCC(O)(C(=O)NCc3cc(F)cc(Cl)c3)C2=O)c1` (centres unmarked) [Compound A71], for which the IC50 is 1400 nM.
`O=C(NCc1cc(F)cc(Cl)c1)C1(O)CCN(c2ccc(C(F)F)cc2)C1=O` (centres unmarked) [Compound A60]: the concentration for half-maximal inhibition (IC50) is 1800 nM.
For `O=C(NCc1cc(F)cc(Cl)c1)C1(O)CCN(c2ccc3c(c2)CCOB3O)C1=O` (centres unmarked) [Compound A74], the IC50 came to 14 nM.
For the molecule `O=C(NCc1cc(F)cc(F)c1)[C@@]1(O)CCN(c2cnc3[nH]ccc3c2)C1=O` [Compound A78], the IC50 came to 35 nM.
On to `C[S@](=N)(=O)c1cccc(N2CC[C@](O)(C(=O)NCc3cc(F)cc(Cl)c3)C2=O)c1` [Compound A81], for which the IC50 amounted to 540 nM.
On to `O=CNCCCCNC(=O)c1cc2cc(N3CC[C@](O)(C(=O)NCc4cc(F)cc(Cl)c4)C3=O)ccc2[nH]1` [Compound A68], for which the IC50 came to 110 nM.
On to `COc1ccc(Cn2ccc3cc(N4CC[C@](O)(C(=O)NCc5cc(F)cc(F)c5)C4=O)cnc32)cc1` [Compound A76], for which the IC50 worked out at 260 nM.
Turning to `O=C(NCc1cc(F)cc(Cl)c1)C1(O)CCN(c2ccc3c(c2)CC(C2CC2)N3)C1=O` (centres unmarked) [Compound A47], the IC50 came out at 40 nM.
On to `O=C(NCc1cc(F)cc(F)c1)[C@@]1(O)CCN(c2ccc3[nH]ncc3c2)C1=O` [Compound A75, (S)-3-Hydroxy-1-(1H-indazol-5-yl)-2-oxo-pyrrolidine-3-carboxylic acid 3,5-difluoro-benzylamide], for which the IC50 turned out to be 42 nM.
As to `CC(=O)Nc1cc2cc(N3CCC(O)(C(=O)NCc4cc(F)cc(Cl)c4)C3=O)ccc2oc1=O` (centres unmarked) [Compound A17], the IC50 came to 1100 nM.
Turning to `NCCCNC(=O)[C@H](CCC(N)=O)NC(=O)c1cc2cc(N3CC[C@](O)(C(=O)NCc4cc(F)cc(Cl)c4)C3=O)ccc2[nH]1` [Compound A50], the IC50 stood at 3500 nM.
Consider `O=C(NCc1cc(F)cc(Cl)c1)[C@@]1(O)C(=O)N(c2ccccc2)C[C@@H]1O` [Compound A87], for which the IC50 came to 2300 nM.
Regarding `O=C(NCc1cc(F)cc(Cl)c1)[C@@]1(O)CCN(c2cccc(OC(F)(F)F)c2)C1=O` [Compound A67], the IC50 is 290 nM.
Still for that read-out and setting: as for `C[S@@](=N)(=O)c1cccc(N2CC[C@](O)(C(=O)NCc3cc(F)cc(Cl)c3)C2=O)c1` [Compound A82], the figure is 310 nM.
As to `O=C(NCc1cc(F)cc(Cl)c1)[C@@]1(O)CCN(c2ccc3[nH]c(-c4nnco4)cc3c2)C1=O` [Compound A9], the IC50 was 14 nM.
`NCCCCNC(=O)c1cc2cc(N3CC[C@](O)(C(=O)NCc4cc(F)cc(Cl)c4)C3=O)ccc2[nH]1` [Compound A35]: the IC50 came to 51 nM.
On to `O=C(NCc1cc(F)cc(Cl)c1)[C@@]1(O)CCN(c2cccc(S(=O)(=O)N3CCNCC3)c2)C1=O` [Compound A1], for which the IC50 stood at 1000 nM.
Turning to `N/C(=N\O)c1cc2cc(N3CC[C@](O)(C(=O)NCc4cc(F)cc(Cl)c4)C3=O)ccc2[nH]1` [Compound A6], the IC50 came to 30 nM.
In the case of `CC(C)C(NC(=O)CN1CCC(O)(C(=O)NCc2cc(F)cc(Cl)c2)C1=O)C(=O)N(C)C` (centres unmarked) [Compound A46], the IC50 turned out to be 45 nM.
With `O=C(NCc1cc(F)cc(Cl)c1)[C@@]1(O)CCN(c2cnc3[nH]cc(Br)c3c2)C1=O` [Compound A33], the IC50 came out at 5.4 nM.
For the molecule `NC(=O)CC[C@H](NC(=O)c1cc2cc(N3CC[C@](O)(C(=O)NCc4cc(F)cc(Cl)c4)C3=O)ccc2[nH]1)C(=O)N[C@@H](Cc1ccccc1)C(N)=O` [Compound A52], the IC50 is 4400 nM.
On the same count and under the same terms, as for `O=C(NCc1cc(F)cc(Cl)c1)C1(O)CCN(c2ccc3c(c2)CS(=O)(=O)C3)C1=O` (centres unmarked) [Compound A28], the figure is 530 nM; as for `O=C(NCc1cc(F)cc(Cl)c1)C1(O)CCN(c2ccc3[nH]c(Br)cc3c2)C1=O` (centres unmarked) [Compound A22], 130 nM.

The assay is the same for the next values; noted with them: HUVEC, reference compounds run in every assay, expected value, read-out: expected value (EC50) of reference compound.
The term EC50 denotes the concentration giving half of the maximal effect. Regarding `CO[C@@H]1[C@H](OC(=O)NC(=O)CCl)CC[C@]2(CO2)[C@H]1[C@@]1(C)O[C@@H]1CC=C(C)C` [MSC1902850A, TNP-470, reference compound], the EC50 is 0.8 nM.

For the origin of these results see patent publication US10005756B2, “Pyrrolidinone derivatives as MetAP-2 inhibitors” (Merck Patent GmbH, priority 2014, dated 2018).
